Laboratory results reported in publication PMC10545747, “Development of cyclopeptide inhibitors of cGAS targeting protein-DNA interaction and phase separation” (Nature Communications, 2023).
Values joined by “and” are separate entries in the source; they are usually repeats but may differ in a detail not shown here. Equal entries are not always repeated. Square brackets hold non-standard residues; d marks the D form. Peptide text beside a SMILES is read from it. Hyp = O=C(O)[C@@H]1C[C@@H](O)CN1; Orn = NCCC[C@H](N)C(=O)O

Biological target: T1, recombinant human cGAS enzyme (hcGAS-ΔN, residues 147–522) (Homo sapiens, UniProt Q8N884)
T1 construct: N-terminally truncated human cGAS (hcGAS-ΔN, residues 147–522); 6xHis-SUMO (N, cleaved yes); made in house; host or cells: Escherichia coli BL21 (DE3)
Test: RNA-based fluorescent biosensor assay of cGAS activity (2',3'-cGAMP formation), in vitro screening
Type: biochemical
Details: for inhibition at 20 µM / Inhibition %: peptides screened at 20 μM, Supplementary Table 1 / Fig. S5b; for inhibition at 20 µM: read-out: Inhibition %; for Remaining activity (%), Fig. 1a source data / remaining activity at 20 µM: 20 μM, replicate values; for remaining activity at 20 µM: read-out: Remaining activity (%), Fig. 1a source data
In short: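 In 40 mM Tris-HCl pH 7.5, 100 mM NaCl, 10 mM MgCl2, ISD (0.5 μM) started the reaction with hcGAS-ΔN (1.5 μM), ATP (1 mM) and GTP (1 mM). Incubation was 2 h at 37 °C, with compounds screened at 20 μM. 2',3'-cGAMP formed was quantified with an RNA-based fluorescent biosensor.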

T1 sequence (Q8N884 147-522, stated change not applied): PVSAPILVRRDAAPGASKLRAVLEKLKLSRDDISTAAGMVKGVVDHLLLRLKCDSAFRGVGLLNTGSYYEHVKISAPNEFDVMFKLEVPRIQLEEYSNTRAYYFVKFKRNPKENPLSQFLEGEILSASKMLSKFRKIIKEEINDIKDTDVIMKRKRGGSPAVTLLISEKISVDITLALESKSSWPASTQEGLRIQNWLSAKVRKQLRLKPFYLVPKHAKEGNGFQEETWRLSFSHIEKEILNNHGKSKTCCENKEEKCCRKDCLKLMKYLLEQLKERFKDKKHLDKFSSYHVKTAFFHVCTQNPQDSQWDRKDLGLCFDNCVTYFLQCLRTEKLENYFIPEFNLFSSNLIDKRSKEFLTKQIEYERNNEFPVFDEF

Molecule	inhibition at 20 µM	Inhibition %	Remaining activity (%), Fig. 1a source data	remaining activity at 20 µM
CC(C)C[C@@H]1NC(=O)[C@H](C)NC(=O)[C@H](C(C)C)NC(=O)[C@H](CCCNC(=N)N)NC(=O)[C@@H](Cc2ccccc2)NC(=O)[C@H](CC(C)C)NC(=O)[C@H](CC(=O)O)NC(=O)[C@H](C(C)C)NC(=O)[C@@H]2CCCN2C(=O)[C@@H](Cc2ccccc2)NC1=O [XQ77, Cyclo (LfPVDLfRVA)] (cyclo(AL[dF]PVDL[dF]RV))	10%	–	–	–
CC(C)C[C@@H]1NC(=O)[C@H](CCCN)NC(=O)[C@H](C(C)C)NC(=O)[C@@H]2CCCN2C(=O)[C@@H](Cc2ccccc2)NC(=O)[C@H](CC(C)C)NC(=O)[C@H](CCCN)NC(=O)[C@H](C(C)C)NC(=O)[C@@H]2CCCN2C(=O)[C@@H](Cc2ccccc2)NC1=O [XQ39, Cyclo (LfPV(Orn)LfPV(Orn))] (cyclo(V[Orn]L[dF]PV[Orn]L[dF]P))	3%	–	96.3833% and 97.8523%	97.2%
CC(C)C[C@@H]1NC(=O)[C@H](CCCNC(=N)N)NC(=O)[C@H]([C@@H](C)O)NC(=O)[C@@H]2CCCN2C(=O)[C@@H](Cc2ccccc2)NC(=O)[C@H](CC(C)C)NC(=O)[C@H](CCCNC(=N)N)NC(=O)[C@H]([C@@H](C)O)NC(=O)[C@@H]2CCCN2C(=O)[C@@H](C)NC1=O [XQ34, Cyclo (LaPTRLfPTR)] (cyclo(L[dA]PTRL[dF]PTR))	0%	–	102.306% and 102.914%	103%
CC(C)C[C@@H]1NC(=O)[C@H](CCCNC(=N)N)NC(=O)[C@@H]2CCCN2C(=O)[C@@H](Cc2ccccc2)NC(=O)[C@H](CCCNC(=N)N)NC(=O)[C@H](C(C)C)NC(=O)[C@@H]2CCCN2C(=O)[C@@H](Cc2ccccc2)NC1=O [XQ25, Cyclo (fPVRfPRL)] (cyclo(L[dF]PVR[dF]PR))	0%	–	114.007% and 112.821%	112%
CC(C)C[C@@H]1NC(=O)[C@H](CCCNC(=N)N)NC(=O)[C@H]([C@@H](C)O)NC(=O)[C@@H]2CCCN2C(=O)[C@@H](Cc2ccccc2)NC(=O)[C@H](Cc2ccccc2)NC(=O)[C@H](CCCNC(=N)N)NC(=O)[C@H]([C@@H](C)O)NC(=O)[C@@H]2CCCN2C(=O)[C@@H](Cc2ccccc2)NC1=O [XQ29, Cyclo (FfPTRLfPTR)] (cyclo(F[dF]PTRL[dF]PTR))	7%	–	92.9858% and 93.5702%	92.7%
CC(C)C[C@H]1NC(=O)[C@H](Cc2ccccc2)NC(=O)[C@H]2CCCN2C(=O)[C@@H]([C@H](C)O)NC(=O)[C@@H](CCCNC(=N)N)NC(=O)[C@@H](CC(C)C)NC(=O)[C@H](Cc2ccccc2)NC(=O)[C@H]2CCCN2C(=O)[C@@H]([C@H](C)O)NC(=O)[C@@H](CCCNC(=N)N)NC1=O [XQ24, Cyclo (tpFlrtpFlr)] (cyclo(F[dL][dR][dT][dP]F[dL][dR][dT][dP]))	5%	–	93.4684% and 95.0442%	94.2%
CC(C)C[C@@H]1NC(=O)[C@H](C)NC(=O)[C@H](C(C)C)NC(=O)[C@@H]2CCCN2C(=O)[C@@H](Cc2ccccc2)NC(=O)[C@H](CCCNC(=N)N)NC(=O)[C@H](CCCNC(=N)N)NC(=O)[C@H](C(C)C)NC(=O)[C@@H]2CCCN2C(=O)[C@@H](Cc2ccccc2)NC1=O [XQ44, Cyclo (RfPVALfPVR)] (cyclo(AL[dF]PVRR[dF]PV))	0%	–	107.77% and 107.519%	107%
Cyclo (Aa(Hyp)TDLfPTR) [XQ85]	–	0%	–	–
CC(C)[C@@H]1NC(=O)[C@@H]2CCCN2C(=O)[C@@H](Cc2ccccc2)NC(=O)[C@H](C)NC(=O)[C@H](CCCNC(=N)N)NC(=O)[C@H](C)NC(=O)[C@@H]2CCCN2C(=O)[C@@H](Cc2ccccc2)NC(=O)[C@H](C)NC(=O)[C@H](CCCNC(=N)N)NC1=O [XQ18, Cyclo (AfPARAfPVR)] (cyclo(ARA[dF]PVRA[dF]P))	5%	–	93.9479% and 95.218%	94.3%
CC(C)C[C@@H]1NC(=O)[C@H](CCCNC(=N)N)NC(=O)[C@H](C(C)C)NC(=O)[C@@H]2CCCN2C(=O)[C@@H](Cc2ccccc2)NC(=O)[C@H](CC(C)C)NC(=O)[C@H](CCCNC(=N)N)NC(=O)[C@H](C(C)C)NC(=O)[C@@H]2CCCN2C(=O)[C@@H](C)NC1=O [XQ1, Cyclo (LaPVRLfPVR)] (cyclo(L[dA]PVRL[dF]PVR))	23%	–	76.5914% and 76.7702%	76.9%

The remaining lines, values ahead:

inhibition at 20 µM	Inhibition %	Remaining activity (%), Fig. 1a source data	remaining activity at 20 µM	Molecule
–	7%	–	–	Cyclo (Lf(Hyp)TDAfPVR) [XQ88]
0%	–	112.545% and 112.328%	113%	CC(C)C[C@@H]1NC(=O)[C@H](CCCNC(=N)N)NC(=O)[C@H](C(C)C)NC(=O)[C@@H]2CCCN2C(=O)[C@@H](Cc2ccccc2)NC(=O)[C@H](CC(C)C)NC(=O)[C@H](CCCNC(=N)N)NC(=O)[C@H](C(C)C)NC(=O)[C@@H]2CCCN2C(=O)[C@@H](Cc2ccccc2)NC1=O [XQ38, Cyclo (LfPVRLfPVR)] (cyclo(L[dF]PVRL[dF]PVR))
7%	–	93.0523% and 92.7481%	93.2%	CC(C)C[C@@H]1NC(=O)[C@H](CCCNC(=N)N)NC(=O)[C@H]([C@@H](C)O)NC(=O)[C@@H]2CCCN2C(=O)[C@@H](Cc2ccccc2)NC(=O)[C@H](C(C)C)NC(=O)[C@H](CCCNC(=N)N)NC(=O)[C@H]([C@@H](C)O)NC(=O)[C@@H]2CCCN2C(=O)[C@@H](Cc2ccccc2)NC1=O [XQ30, Cyclo (VfPTRLfPTR)] (cyclo(L[dF]PTRV[dF]PTR))
32%	–	66.7673% and 68.063%	67.2%	CC(C)C[C@@H]1NC(=O)[C@H](CCCNC(=N)N)NC(=O)[C@H](C(C)C)NC(=O)[C@@H]2CCCN2C(=O)[C@@H](C)NC(=O)[C@H](C)NC(=O)[C@H](CCCNC(=N)N)NC(=O)[C@H](C(C)C)NC(=O)[C@@H]2CCCN2C(=O)[C@@H](C)NC1=O [XQ17, Cyclo (AaPVRLaPVR)] (cyclo(A[dA]PVRL[dA]PVR))
–	0%	–	–	Cyclo ((hex)DLfPVR(hex)) [XQ69]
–	0%	–	–	Cyclo (LwPVD(Nle)f(K(Dde))IR) [XQ75]
30%	–	69.874% and 69.5698%	69.3%	CC(C)C[C@@H]1NC(=O)[C@H](CCCNC(=N)N)NC(=O)[C@H]([C@@H](C)O)NC(=O)[C@@H]2CCCN2C(=O)[C@@H](Cc2ccccc2)NC(=O)[C@H](CC(C)C)NC(=O)[C@H](CCCNC(=N)N)NC(=O)[C@H]([C@@H](C)O)NC(=O)[C@@H]2CCCN2C(=O)CNC1=O [XQ32, Cyclo (LgPTRLfPTR)] (cyclo(GPTRL[dF]PTRL))
0%	–	–	–	CC(C)C[C@@H]1NC(=O)[C@H](CCCNC(=N)N)NC(=O)[C@H](C(C)C)NC(=O)[C@@H]2CCCN2C(=O)[C@@H](Cc2ccccc2)NC(=O)[C@H](Cc2c[nH]cn2)NC(=O)[C@H](CC(=O)O)NC(=O)[C@H]([C@@H](C)O)NC(=O)[C@@H]2CCCN2C(=O)[C@@H](Cc2ccccc2)NC1=O [XQ67, Cyclo (LfPTDHfPVR)] (cyclo(DH[dF]PVRL[dF]PT))
0%	–	116.041% and 118.595%	116%	N=C(N)NCCC[C@@H]1NC(=O)[C@@H]2CCCN2C(=O)[C@@H](Cc2ccccc2)NC(=O)[C@H](CCCNC(=N)N)NC(=O)[C@@H]2CCCN2C(=O)[C@@H](Cc2ccccc2)NC1=O [XQ26, Cyclo (PRfPRf)] (cyclo(PR[dF]PR[dF]))
7%	–	92.7452% and 92.4625%	93.4%	CC(C)C[C@@H]1NC(=O)[C@H](CCCNC(=N)N)NC(=O)[C@H](C)NC(=O)[C@@H]2CCCN2C(=O)[C@@H](Cc2ccccc2)NC(=O)[C@H](C)NC(=O)[C@H](CCCNC(=N)N)NC(=O)[C@H](C(C)C)NC(=O)[C@@H]2CCCN2C(=O)[C@@H](Cc2ccccc2)NC1=O [XQ13, Cyclo (AfPARLfPVR)] (cyclo(ARL[dF]PVRA[dF]P))
32%	–	68.1038% and 66.5986%	66.6%	CC(C)C[C@@H]1NC(=O)[C@H](CCCNC(=N)N)NC(=O)[C@H](C(C)C)NC(=O)[C@@H]2C[C@@H](O)CN2C(=O)[C@@H](Cc2ccccc2)NC(=O)[C@H](CC(C)C)NC(=O)[C@H](CCCNC(=N)N)NC(=O)[C@H](C(C)C)NC(=O)[C@@H]2CCCN2C(=O)[C@@H](Cc2ccccc2)NC1=O [XQ6, Cyclo (LfPVRLf(Hyp)VR)] (cyclo([Hyp]VRL[dF]PVRL[dF]))
0%	–	–	–	CC(C)C[C@@H]1NC(=O)[C@H](CCCNC(=N)N)NC(=O)[C@H](C(C)C)NC(=O)[C@@H]2CCCN2C(=O)[C@@H](Cc2ccccc2)NC(=O)[C@H](C)NC(=O)[C@H](CC(C)C)NC(=O)[C@H](C(C)C)NC(=O)[C@@H]2CCCN2C(=O)[C@@H](Cc2ccccc2)NC1=O [XQ50, Cyclo (LfPVLAfPVR)] (cyclo(A[dF]PVRL[dF]PVL))
0%	–	101.466% and 100.76%	101%	CC(C)C[C@@H]1NC(=O)[C@H](CCCNC(=N)N)NC(=O)[C@H](C(C)C)NC(=O)[C@@H]2CCCN2C(=O)[C@@H](C)NC(=O)[C@H](CC(C)C)NC(=O)[C@H](CCCNC(=N)N)NC(=O)[C@H](C(C)C)NC(=O)[C@@H]2CCCN2C(=O)[C@@H](C)NC1=O [XQ7, Cyclo (LaPVRLaPVR)] (cyclo(L[dA]PVRL[dA]PVR))
